Measured values taken from PubChem BioAssay (NCI).
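In this assay, cells in 96-well plates receive the compound at five concentrations for 48 hours. Endpoints are linearly interpolated between the surrounding concentrations. GI50 is the concentration that inhibits growth by half. Definition used: TGI = concentration required for complete inhibition of growth.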

Columns and labels:
Test in all cases: inhibition of tumour cell growth, NCI panel, 48 h
RXF 393 renal = tested on: RXF 393 renal
NCI-H460 lung = tested on: NCI-H460 lung
SF-295 CNS = tested on: SF-295 CNS
SF-268 CNS = tested on: SF-268 CNS
SK-MEL-5 melanoma = tested on: SK-MEL-5 melanoma
SNB-19 CNS = tested on: SNB-19 CNS
SK-MEL-28 melanoma = tested on: SK-MEL-28 melanoma
NCI-H522 lung = tested on: NCI-H522 lung
A549 NSCLC = tested on: A549 NSCLC
HT29 colon = tested on: HT29 colon
MDA-MB-435 = tested on: MDA-MB-435
LOX IMVI melanoma = tested on: LOX IMVI melanoma
HCC-2998 colon = tested on: HCC-2998 colon
U251 CNS = tested on: U251 CNS
MDA-MB-231 breast = tested on: MDA-MB-231 breast
DU-145 prostate = tested on: DU-145 prostate
MOLT-4 leukemia = tested on: MOLT-4 leukemia
EKVX NSCLC = tested on: EKVX NSCLC
RPMI-8226 leukemia = tested on: RPMI-8226 leukemia

Row | SMILES | TGI (RXF 393 renal) [µM] | TGI (NCI-H460 lung) [µM] | TGI (SF-295 CNS) [µM] | TGI (SF-268 CNS) [µM] | TGI (SK-MEL-5 melanoma) [µM] | TGI (SNB-19 CNS) [µM] | TGI (SK-MEL-28 melanoma) [µM] | TGI (NCI-H522 lung) [µM] | TGI (A549 NSCLC) [µM] | TGI (HT29 colon) [µM] | TGI (MDA-MB-435) [µM] | TGI (LOX IMVI melanoma) [µM] | TGI (HCC-2998 colon) [µM] | TGI (U251 CNS) [µM] | TGI (MDA-MB-231 breast) [µM] | TGI (DU-145 prostate) [µM] | TGI (MOLT-4 leukemia) [µM] | TGI (EKVX NSCLC) [µM] | TGI (RPMI-8226 leukemia) [µM] | GI50 (A549 NSCLC) [µM]
1 | CC(C)(CCCCC(C)(C)NC1=NCCO1)NC1=NCCO1 | > 10 | > 10 | > 10 | > 10 | > 10 | > 10 | > 10 | > 10 | > 10 | > 10 | > 10 | > 10 | > 10 | > 10 | > 10 | > 10 | > 10 | > 10 | > 10 | 
2 | O=c1c2ccccc2nc2n1CCc1c-2[nH]c2ccccc12 | 34.5 |  | 27 | 75.2 | 28.6 | 29.2 | 62.4 |  | 37.4 |  |  |  |  | 28.6 |  | 33.5 | > 100 | 60.5 | > 100 | 14.5
3 | O=c1c(-c2ccccc2)c(SCCCN2CCCCC2)n(-c2ccccc2)c(=S)n1-c1ccccc1 | 27.7 | 31.5 | 32.1 |  | 30.8 |  | 33.2 | 41.1 |  |  | 34.5 | 32.4 | 16.8 | 29.1 | 27.9 | 34.1 | 47 | > 100 | 37.7 | 
4 | O=c1[nH]c2ccccc2c2oc3ccccc3c12 | > 100 | > 100 | > 100 | > 100 | > 100 | > 100 | > 100 | > 100 | > 100 | > 100 | > 100 |  | > 100 | > 100 | > 100 | > 100 | > 100 | > 100 |  | 
5 | COC(=O)C1=C(O)C(C(=O)OC)[C@@]2(O)[C@@H](C(=O)OC)[C@H](C)C[C@@H]1[C@@H]2C(=O)OC (some centres undefined) | 58.9 | 44.3 |  |  |  | > 100 | > 100 | 50.7 |  | 71.3 | 32.1 | > 100 | 30.9 | 53.2 | 40.3 | 50.5 | > 100 | 69.6 | 71.5 | 
